Laboratory results: US12338220B2, “Antiviral pyrazolopiridinone compounds” (Novartis AG, priority 2019, dated 2025)
Read-outs that look alike come from different tables or passages of the source.

Legend:
[1] = tested on: HCMV-Rluc virus (AD169 pp28-hRluc rUL131); experiment: CMV Luciferase Assay of Compounds 243-262 in ARPE-19 cells; format: cell-based; conditions: read-out: CMV-Luc Cellular EC50 in ARPE-19
Method: CMV Luciferase Assay of Compounds 243-262.
Compounds 243-262 were tested in a luminescence assay as follows.
ARPE-19 cells were maintained in growth medium (DMEM/F12 Glutamax+10 fetal bovine serum (FBS)+PenStrep) and, before reaching full confluence, were transferred to a centrifuge tube and spun for 5 minutes at 1000 rpm. The cells were resuspended in assay medium (DMEM/F12 Glutamax+2% FBS+PenStrep) and counted. Cell density was adjusted to one million cells per milliliter and infected with HCMV-Rluc virus (AD169 pp28-hRluc rUL131; MOI 0.6) in a 50 ml conical tube for 2 hours while shaking. After dilution of the infectious suspension ten-fold (to 100,000 cells per milliliter), 8000 cells are directly plated in 384-well plates pre-spotted with the compound to be tested. The cells were incubated for 72 hours at 37 degrees Celsius. Cells were then placed at room temperature and allowed to equilibrate for 20 minutes before addition of the Renilla-Glo (Promega) reagent. After a 10-minute incubation at room temperature, luminescence was measured on a microplate reader.

[2] = target: CMV-polymerase (Human cytomegalovirus (strain AD169) (HHV-5) (Human herpesvirus 5), UniProt P08546); experiment: biochemical; conditions: read-out: CMV-polymerase Biochemical IC50
[3] = tested on: CMV; experiment: microbe, parasite or virus in culture; format: cell-based
[4] = tested on: KOS strain of HSV-1 virus; experiment: HSV-1 qPCR assay; conditions: Human alphaherpesvirus 1, 24 h, read-out: Cellular activity against HSV-1 (EC50), NN-NHDF cells, MOI 0.01, 24 hrs, qPCR
[5] = target: HSV-polymerase (Human herpesvirus 1 (strain 17) (HHV-1) (Human herpes simplex virus 1), UniProt P04293); experiment: biochemical
[6] = Human betaherpesvirus 5, AD169, ARPE-19, 72 h
[7] = Human betaherpesvirus 5, 72 h, read-out: CMV-Luc Cellular EC50, NN-NHDF cells, MOI 1, 72 hrs
[8] = Human betaherpesvirus 5, read-out: Cellular activity against CMV (EC50), Table 18

Cn1nc(C(=O)NCc2ccc(C#N)cc2)c2c1C(=O)N(CC1(S(=O)(=O)NC(C)(CO)CO)CC1)CC2 [Example 257, N-(4-cyanobenzyl)-6-((1-(N-(1,3-dihydroxy-2-methylpropan-2-yl)sulfamoyl)cyclopropyl)methyl)-1-methyl-7-oxo-4,5,6,7-tetrahydro-1H-pyrazolo[3,4-c]pyridine-3-carboxamide]
EC50 [1, 6]: 358 nM

Cn1nc(C(=O)NCc2ccc(C#N)cc2)c2c1C(=O)N(CC1(S(=O)(=O)NC(C)(C)CC(N)=O)CC1)CC2 [Example 253, 6-((1-(N-(4-amino-2-methyl-4-oxobutan-2-yl)sulfamoyl)cyclopropyl)methyl)-N-(4-cyanobenzyl)-1-methyl-7-oxo-4,5,6,7-tetrahydro-1H-pyrazolo[3,4-c]pyridine-3-carboxamide]
EC50 [1, 6]: 386 nM

Cn1nc(C(=O)NCc2ccc(C#N)cc2)c2c1C(=O)N(CC1(S(=O)(=O)Nc3cnccn3)CC1)CC2 [Example 245, N-(4-cyanobenzyl)-1-methyl-7-oxo-6-((1-(N-(pyrazin-2-yl)sulfamoyl)cyclopropyl)methyl)-4,5,6,7-tetrahydro-1H-pyrazolo[3,4-c]pyridine-3-carboxamide]
EC50 [1, 6]: 181 nM

Cn1nc(C(=O)NCc2ccc(C#N)cc2)c2c1C(=O)N(CC1(S(=O)(=O)Nc3cccc(CO)n3)CC1)CC2 [Example 243, N-(4-cyanobenzyl)-6-((1-(N-(6-(hydroxymethyl)pyridin-2-yl)sulfamoyl)cyclopropyl)methyl)-1-methyl-7-oxo-4,5,6,7-tetrahydro-1H-pyrazolo[3,4-c]pyridine-3-carboxamide]
EC50 [1, 6]: 115 nM

Cn1nc(C(=O)NCc2ccc(C#N)cc2)c2c1C(=O)N(CC1(S(=O)(=O)NCc3cnccn3)CC1)CC2 [Example 260, N-(4-cyanobenzyl)-1-methyl-7-oxo-6-((1-(N-(pyrazin-2-ylmethyl)sulfamoyl)cyclopropyl)methyl)-4,5,6,7-tetrahydro-1H-pyrazolo[3,4-c]pyridine-3-carboxamide]
EC50 [1, 6]: 278 nM

Cn1nc(C(=O)NCc2ccc(C#N)cc2)c2c1C(=O)N(CC1(S(=O)(=O)Nc3ccccc3C#N)CC1)CC2 [Example 248, N-(4-cyanobenzyl)-6-((1-(N-(2-cyanophenyl)sulfamoyl)cyclopropyl)methyl)-1-methyl-7-oxo-4,5,6,7-tetrahydro-1H-pyrazolo[3,4-c]pyridine-3-carboxamide]
EC50 [1, 6]: 10000 nM

CC1(S(=O)(=O)C2(CN3CCc4c(C(=O)NCc5ccc(C#N)cc5)nn(CCO)c4C3=O)CC2)CC1 [Example 217, N-(4-Cyanobenzyl)-1-(2-hydroxyethyl)-6-((1-((1-methylcyclopropyl)sulfonyl)cyclopropyl)methyl)-7-oxo-4,5,6,7-tetrahydro-1H-pyrazolo[3,4-c]pyridine-3-carboxamide]
IC50 [2]: 1 nM
EC50 [3, 7]: 29 nM
EC50 [3, 8]: 29 nM
EC50 [4]: 36 nM

CC(C)(CO)S(=O)(=O)C1(CN2CCc3c(C(=O)NCc4ccc(Cl)cc4)nn(CCO)c3C2=O)CC1 [Example 221, N-(4-chlorobenzyl)-6-((1-((1-hydroxy-2-methylpropan-2-yl)sulfonyl)cyclopropyl)methyl)-1-(2-hydroxyethyl)-7-oxo-4,5,6,7-tetrahydro-1H-pyrazolo[3,4-c]pyridine-3-carboxamide]
IC50 [2]: 1 nM
EC50 [3, 7]: 17 nM
EC50 [3, 8]: 17 nM
EC50 [4]: 10 nM

Cn1nc(C(=O)NCc2ccc(C#N)cc2)c2c1C(=O)N(CC1(S(=O)(=O)N3C[C@H](O)[C@@H](O)C3)CC1)CC2 [Example 255, N-(4-cyanobenzyl)-6-((1-(((3S,4S)-3,4-dihydroxypyrrolidin-1-yl)sulfonyl)cyclopropyl)methyl)-1-methyl-7-oxo-4,5,6,7-tetrahydro-1H-pyrazolo[3,4-c]pyridine-3-carboxamide]
EC50 [1, 6]: 313 nM

Cn1nc(C(=O)NCc2ccc(C#N)cc2)c2c1C(=O)N(CC1(S(=O)(=O)C(C)(C)C(O)CO)CC1)CC2 (stereo not drawn) [Example 252, N-(4-cyanobenzyl)-6-((1-((3,4-dihydroxy-2-methylbutan-2-yl)sulfonyl)cyclopropyl)methyl)-1-methyl-7-oxo-4,5,6,7-tetrahydro-1H-pyrazolo[3,4-c]pyridine-3-carboxamide]
EC50 ([1]; ARPE-19 cells, MOI 0.6, 72 hours): 21.9 nM

Cn1nc(C(=O)NCc2ccc(C#N)cc2)c2c1C(=O)N(CC1(S(=O)(=O)Nc3ccccc3)CC1)CC2 [Example 246, N-(4-cyanobenzyl)-1-methyl-7-oxo-6-((1-(N-phenylsulfamoyl)cyclopropyl)methyl)-4,5,6,7-tetrahydro-1H-pyrazolo[3,4-c]pyridine-3-carboxamide]
EC50 [1, 6]: 74.5 nM

Cn1nc(C(=O)NCc2ccc(C#N)cc2)c2c1C(=O)N(CC1(S(N)(=O)=O)CC1)CC2 [Example 262, N-(4-cyanobenzyl)-1-methyl-7-oxo-6-((1-sulfamoylcyclopropyl)methyl)-4,5,6,7-tetrahydro-1H-pyrazolo[3,4-c]pyridine-3-carboxamide]
EC50 [1, 6]: 252 nM

Cn1nc(C(=O)NCc2ccc(C#N)cc2)c2c1C(=O)N(CC1(S(=O)(=O)NC(CO)(CO)CO)CC1)CC2 [Example 261, N-(4-cyanobenzyl)-6-((1-(N-(1,3-dihydroxy-2-(hydroxymethyl)propan-2-yl)sulfamoyl)cyclopropyl)methyl)-1-methyl-7-oxo-4,5,6,7-tetrahydro-1H-pyrazolo[3,4-c]pyridine-3-carboxamide]
EC50 [1, 6]: 2580 nM

CN(C)C(=O)CCNS(=O)(=O)C1(CN2CCc3c(C(=O)NCc4ccc(C#N)cc4)nn(C)c3C2=O)CC1 [Example 254, N-(4-cyanobenzyl)-6-((1-(N-(3-(dimethylamino)-3-oxopropyl)sulfamoyl)cyclopropyl)methyl)-1-methyl-7-oxo-4,5,6,7-tetrahydro-1H-pyrazolo[3,4-c]pyridine-3-carboxamide]
EC50 [1, 6]: 1000 nM

Cn1nc(C(=O)NCc2ccc(Cl)cc2)c2c1C(=O)N(CC1(S(=O)(=O)C(C)(C)C(O)CN)CC1)CC2 (single isomer, unassigned) [Example 200, (R)- or (S)-6-((1-((4-Amino-3-hydroxy-2-methylbutan-2-yl)sulfonyl)cyclopropyl)methyl)-N-(4-chlorobenzyl)-1-methyl-7-oxo-4,5,6,7-tetrahydro-1H-pyrazolo[3,4-c]pyridine-3-carboxamide]
EC50 [3, 7]: 5 nM
EC50 [3, 8]: 5 nM
EC50 [4]: 16 nM

CC(=O)Nc1cccc(NS(=O)(=O)C2(CN3CCc4c(C(=O)NCc5ccc(C#N)cc5)nn(C)c4C3=O)CC2)n1 [Example 244, 6-((1-(N-(6-acetamidopyridin-2-yl)sulfamoyl)cyclopropyl)methyl)-N-(4-cyanobenzyl)-1-methyl-7-oxo-4,5,6,7-tetrahydro-1H-pyrazolo[3,4-c]pyridine-3-carboxamide]
EC50 [1, 6]: 116 nM

CC(NS(=O)(=O)C1(CN2CCc3c(C(=O)NCc4ccc(C#N)cc4)nn(C)c3C2=O)CC1)c1cnccn1 (stereo not drawn) [Example 259, N-(4-cyanobenzyl)-1-methyl-7-oxo-6-((1-(N-(1-(pyrazin-2-yl)ethyl)sulfamoyl)cyclopropyl)methyl)-4,5,6,7-tetrahydro-1H-pyrazolo[3,4-c]pyridine-3-carboxamide]
EC50 [1, 6]: 714 nM

Cn1nc(C(=O)NCc2ccc(Cl)c(F)c2)c2c1C(=O)N(CC1(S(=O)(=O)C(C)(C)C(O)CO)CC1)CC2 (stereo not drawn) [Example 249, N-(4-chloro-3-fluorobenzyl)-6-((1-((3,4-dihydroxy-2-methylbutan-2-yl)sulfonyl)cyclopropyl)methyl)-1-methyl-7-oxo-4,5,6,7-tetrahydro-1H-pyrazolo[3,4-c]pyridine-3-carboxamide]
EC50 [1, 6]: 8.24 nM

Cn1nc(C(=O)NCc2ccc(Cl)c(F)c2)c2c1C(=O)N(CC1(S(=O)(=O)C(C)(C)[C@H](O)CO)CC1)CC2 [Example 250, (R)—N-(4-chloro-3-fluorobenzyl)-6-((1-((3,4-dihydroxy-2-methylbutan-2-yl)sulfonyl)cyclopropyl)methyl)-1-methyl-7-oxo-4,5,6,7-tetrahydro-1H-pyrazolo[3,4-c]pyridine-3-carboxamide]
EC50 [1, 6]: 26.7 nM

Cn1nc(C(=O)NCc2ccc(C#N)cc2)c2c1C(=O)N(CC1(S(=O)(=O)NCc3ncccn3)CC1)CC2 [Example 258, N-(4-cyanobenzyl)-1-methyl-7-oxo-6-((1-(N-(pyrimidin-2-ylmethyl)sulfamoyl)cyclopropyl)methyl)-4,5,6,7-tetrahydro-1H-pyrazolo[3,4-c]pyridine-3-carboxamide]
EC50 [1, 6]: 688 nM

Cn1nc(C(=O)NCc2ccc(C#N)cc2)c2c1C(=O)N(CC1(S(=O)(=O)C(C)(C)COCCN)CC1)CC2 [Example 92, 6-((1-((1-(2-Aminoethoxy)-2-methylpropan-2-yl)sulfonyl)cyclopropyl)methyl)-N-(4-cyanobenzyl)-1-methyl-7-oxo-4,5,6,7-tetrahydro-1H-pyrazolo[3,4-c]pyridine-3-carboxamide]
IC50 [2]: 1 nM
EC50 [3, 7]: 12 nM
EC50 [3, 8]: 12 nM
IC50 [5]: 30 nM
EC50 [4]: 30 nM
